Source: patent US20230293562A1, “[…] COMBINATION OF GALNAC-OLIGO[…] AND SAPONIN, AND USES THEREOF” (SAPREME TECHNOLOGIES B.V., priority 2020, published 2023)
[BNANC] = BNA^NC bridged nucleic acid nucleoside; {ThiolC6} = thiol C6 linker; d = 2'-deoxy (DNA)

What was measured:
Type in all cases: cell-based
ApoB [1] = test: ApoB RNA expression analysis (qPCR) in mouse primary hepatocytes; settings: 72 hrs incubation
Procedure: (§1) RNA from cells was isolated using TRI Reagent® Solution (Thermo Scientific) according to the manufacturer’s instruction. Conversion into cDNA was performed using iScript™ cDNA Synthesis Kit (BioRad) using standard protocols. ApoB expression levels and levels of specific hepatocyte housekeeping genes were determined using quantitative real-time PCR assays (qRT-PCR) using iTaq™ Universal SYBR® Green Supermix (BioRad) and the Light Cycler 480 (Roche Diagnostics, Rotkreuz, Switzerland) with specific DNA primers, listed in Table A4 (murine) and Table A2 (human). Analysis was done by the ΔCt method to determine ApoB expression relative to 2 hepatocyte-specific housekeeping control mRNAs. Each analysis reaction was performed in triplicate.
Cryopreserved primary mouse hepatocytes ([…] Cell Culture Technology GmbH, Germany) were thawed in hepatocyte thawing media (HTM, […] Cell Culture Technology GmbH, Germany) and washed 1x with hepatocyte wash media (HWM, […] Cell Culture Technology GmbH, Germany). Cells were re-suspended in hepatocyte plating media (HPM Cryo, […] Cell Culture Technology GmbH, Germany) at a density of approx. 0.275 × 10^6 cells/ml. […] Plating medium was replaced by 315 µl or 108 µl assay media (MHM, […] Cell Culture Technology GmbH, Germany), after which conjugates were added from a 10x concentrated stock solution in PBS.

ApoB [2] = test: ApoB RNA expression analysis in human primary hepatocytes; settings: read-out: IC50 ApoB gene silencing
Procedure: (§2) ApoBBNA (ApoBBNA#01, targeting human ApoB mRNA) was conjugated to trivalent-GalNAc ((GalNAc)3) (FIG. 6) and primary hepatocytes (ASGPR1^+) cells were treated with a range of concentrations of (GalNAc)3-ApoBBNA#01 with and without addition of 2000 nM SO1861. ApoB gene silencing in primary hepatocytes (ASGPR1^+) cells was determined.
(§3) ApoB gene silencing in primary hepatocytes (ASGPR1^+) cells was determined. […] The dotted line in the ApoBBNA#02 RNAiMAX indicates concentrations at which toxicity and cell death occurs.
as §1

[3] = test system: human primary hepatocytes (ASGPR1+); test: Cell viability assay on human primary hepatocytes; settings: + RNAiMAX
Procedure: as §2, §3
Briefly, the MTS solution was diluted 20× in DMEM without phenol red (PAN-Biotech GmbH) supplemented with 10% FBS. The cells were washed once with 200 µL/PBS well, after which 100 µL diluted MTS solution was added/well. The plate was incubated for approximately 20-30 minutes at 37° C. Subsequently, the OD at 492 nm was measured on a Thermo Scientific Multiskan FC plate reader (Thermo Scientific).

With “ApoBBNA#02: murine and human sequence-compatible ApoB BNA^NC oligonucleotide 5′-GCattggtatTCA-3′ [SEQ ID NO: 12], fully phosphorothioated (antisense GCATTGGTATTCA; sugars from the 5' end [BNANC]2 d8 [BNANC]3, all phosphorothioate, 5' {ThiolC6}, methylation of C not given here)” the “fold less potent in ApoB RNA downmodulation than (GalNAc)3-ApoB#02 BNA + 2000 nM SO1861-EMCH” value (ApoB [1]) was 100 - 667 fold, the IC50 (ApoB [1]; alone, without SO1861-EMCH, read-out: IC50 ApoB RNA expression inhibition) was 0.02 µM and the IC50 (ApoB [2]; RNAiMAX transfection) was 0.005 µM. The IC50 (ApoB [2]; alone, without SO1861-EMCH) was 0.2 µM and the IC50 [3] was 0.1 µM.
